Measurements from publication PMC8776228 (International Journal of Molecular Sciences, 2022).
Converted amounts (≈) assume the structure as drawn. “And” between values parts separate entries of the source, which are not always exact repeats. Identical values can stand only once. Like-named read-outs stand apart in the source and are kept apart here.

Tests used:
M. smegmatis DprE1 [1] = molecular target: T1, M. smegmatis DprE1 (Mycolicibacterium smegmatis, UniProt A0R607); settings: cited from earlier work
M. smegmatis mc^2155 [2] = experiment: microbe, parasite or virus in culture; type: cell-based, Mycobacterium smegmatis; settings: Mycolicibacterium smegmatis
M. tuberculosis H37Rv [3] = experiment: microbe, parasite or virus in culture; type: cell-based; settings: Mycobacterium tuberculosis
M. smegmatis DprE1 [4] = molecular target: T1, M. smegmatis DprE1; experiment: biochemical; design: species or system Mycobacterium smegmatis
M. smegmatis DprE1 C394A [5] = molecular target: T2, M. smegmatis DprE1 C394A (Mycolicibacterium smegmatis, UniProt A0R607, C386A); experiment: biochemical
M. smegmatis mc^2155 [6] = tested on: M. smegmatis mc^2155
M. smegmatis DprE1 L282V = M. smegmatis DprE1 L282V (Mycolicibacterium smegmatis, UniProt A0R607, L274V/L282V); experiment: biochemical
M. tuberculosis H37Rv [7] = tested on: M. tuberculosis H37Rv
M. smegmatis DprE1 C394S [8] = molecular target: T3, M. smegmatis DprE1 C394S (Mycolicibacterium smegmatis, UniProt A0R607, C386S); experiment: biochemical
M. kansasii = settings: cited from earlier work
M. smegmatis DprE1 C394A [9] = molecular target: T2, M. smegmatis DprE1 C394A
[10] = tested on: M. smegmatis mc^2155-pJV53H DprE1 L282F
M. smegmatis DprE1 C394S [11] = molecular target: T3, M. smegmatis DprE1 C394S
[12] = tested on: M. smegmatis mc^2155-pJV53H DprE1 L282V
M. tuberculosis H37Rv [13] = tested on: M. tuberculosis H37Rv; remark: listed apart in the source
M. smegmatis = settings: cited from earlier work
M. avium = settings: cited from earlier work
M. tuberculosis = settings: cited from earlier work
M. smegmatis DprE1 L282F = M. smegmatis DprE1 L282F (Mycolicibacterium smegmatis, UniProt A0R607, L274F/L282F); experiment: biochemical
M. abscessus = settings: cited from earlier work
M. bovis = settings: cited from earlier work

Question: Which IC50 (M. smegmatis DprE1 [1]) does the source give for C[C@H]1COC2(CCN(c3nc(=O)c4cc(C(F)(F)F)cc([N+](=O)[O-])c4s3)CC2)O1 [BTZ043] here?
Answer: 0.004 µM

Question: And the MIC (M. smegmatis mc^2155 [2]; MC^2155, read-out: MIC BTZ-043)?
Answer: 0.008 µg/mL (≈ 0.0185 µM)

Question: And the MIC (M. tuberculosis H37Rv [3]; read-out: MIC BTZ043)?
Answer: 0.001 µg/mL (≈ 0.00232 µM)

Question: With NNC(=O)c1ccncc1 [INH, isoniazid] as the compound, how does the MIC (M. tuberculosis H37Rv [3]; read-out: MIC INH) read?
Answer: 0.025 µg/mL (≈ 0.182 µM)

Question: With CO/N=C1\C[C@]2(C[C@@H]3C[C@@H](C/C=C(\C)C[C@@H](C)/C=C/C=C4\CO[C@@H]5[C@H](O)C(C)=C[C@@H](C(=O)O3)[C@]45O)O2)O[C@H](/C(C)=C/C(C)C)[C@H]1C [Moxidectin] as the compound, how does the IC50 (M. smegmatis DprE1 [4]) read?
Answer: 6.1 ± 0.9 µM

Question: With CO[C@H]1C[C@H](O[C@@H]2/C(C)=C/C[C@@H]3C[C@@H](C[C@]4(CC[C@H](C)[C@@H](C5CCCCC5)O4)O3)OC(=O)[C@@H]3C=C(C)/C(=N/O)[C@H]4OC/C(=C\C=C\[C@@H]2C)[C@]43O)O[C@@H](C)[C@@H]1O [Selamectin] as the compound, how does the IC50 (M. smegmatis DprE1 C394A [5]) read?
Answer: 3.9 ± 1 µM

Question: And the “^14C uptake” value (M. smegmatis mc^2155 [6])?
Answer: general decrease

Question: And the “changes in lipid composition associated with inhibition of arabinan synthesis” value (M. smegmatis mc^2155 [6])?
Answer: did not result in significant changes

Question: What about the IC50 (M. smegmatis DprE1 L282V) of the same compound?
Answer: 50.6 ± 9.2 µM

Question: What about the “day at which the limit of detection (1-log CFU/mL) was reached” value (M. tuberculosis H37Rv [7]) of the same compound?
Answer: 22 day

Question: And the IC50 (M. smegmatis DprE1 C394S [8])?
Answer: 12.1 ± 1.2 µM

Question: And the MIC (M. kansasii)?
Answer: 0.5 µg/mL (≈ 0.649 µM)

Question: And the “IC50 compared to the wild type enzyme” value (M. smegmatis DprE1 C394A [9])?
Answer: in the same range

Question: What about the “change in susceptibility compared to wild-type M. smegmatis (MIC)” value [10] of the same compound?
Answer: no changes in their susceptibilities

Question: And the “IC50 compared to the wild type enzyme” value (M. smegmatis DprE1 C394S [11])?
Answer: slightly higher

Question: What about the “change in susceptibility compared to wild-type M. smegmatis (MIC)” value [12] of the same compound?
Answer: no changes in their susceptibilities

Question: What about the “day at which the limit of detection (1-log CFU/mL) was reached” value (M. tuberculosis NTB1) of the same compound?
Answer: 11 day

Question: What about the “time–kill activity against NTB1 compared to H37Rv” value (M. tuberculosis NTB1) of the same compound?
Answer: more active

Question: And the MIC (M. smegmatis mc^2155 [2]; MC^2155, read-out: MIC SEL)?
Answer: 4 µg/mL (≈ 5.19 µM)

Question: What about the “^14C uptake” value (M. tuberculosis H37Rv [13]) of the same compound?
Answer: general decrease

Question: What about the “changes in lipid composition associated with inhibition of arabinan synthesis” value (M. tuberculosis H37Rv [13]) of the same compound?
Answer: did not result in significant changes

Question: And the MIC (M. smegmatis)?
Answer: 2 to 4 µg/mL

Question: What about the MIC (M. avium) of the same compound?
Answer: 16 µg/mL (≈ 20.8 µM)

Question: What about the MIC (M. tuberculosis H37Rv [3]; read-out: MIC SEL) of the same compound?
Answer: 4 µg/mL (≈ 5.19 µM)

Question: What about the MIC (M. tuberculosis) of the same compound?
Answer: 2 to 4 µg/mL

Question: What about the IC50 (M. smegmatis DprE1 L282F) of the same compound?
Answer: 1 ± 0.7 µM

Question: What about the IC50 (M. smegmatis DprE1 [4]; IC50) of the same compound?
Answer: ~2.6 µM and 2.6 µM

Question: And the MIC (M. abscessus)?
Answer: > 32 µg/mL

Question: What about the MIC (M. bovis) of the same compound?
Answer: 2 to 4 µg/mL

Question: For Ivermectin, which IC50 (M. smegmatis DprE1 [4]; read-out: IC50) is on record?
Answer: 13.2 ± 3.3 µM

Question: With Milbemycin oxime as the compound, how does the IC50 (M. smegmatis DprE1 [4]; read-out: IC50) read?
Answer: 25.5 ± 5.6 µM
